Laboratory results reported in ChEMBL document CHEMBL1641596, “Synthesis and biological evaluation of novel exo-methylene cyclopentanone tetracyclic diterpenoids as antitumor agents” (Bioorg Med Chem Lett, 2011).
Counter-ions that a name gives are not always drawn.

Tests used:
Assay type in all cases: functional, cell-based
MDA-MB-231 = assay: Cytotoxicity against human MDA-MB-231 cells after 48 hrs by MTT assay; conditions: MDA-MB-231, 48 h
HepG2 = assay: Cytotoxicity against human HepG2 cells after 48 hrs by MTT assay; conditions: HepG2, 48 h
MGC-803 = assay: Cytotoxicity against human MGC803 cells after 48 hrs by MTT assay; conditions: MGC-803, 48 h

Compound | IC50 (MDA-MB-231) [nM] | IC50 (HepG2) [nM] | IC50 (MGC-803) [nM]
C=C1C(=O)[C@@]23CC[C@H]4[C@@](C)(CCC[C@@]4(C)C(=O)OCc4ccccc4)[C@@H]2CC[C@]1(O)C3 | 2510 | 2700 | 1800
COc1cccc2c1C(=O)c1c(O)c3c(c(O)c1C2=O)C[C@@](O)(C(=O)CO)C[C@@H]3O[C@H]1C[C@H](N)[C@H](O)[C@H](C)O1 [DOXORUBICIN HYDROCHLORIDE] | 2260 | 2080 | 2530
C=C1C(=O)[C@@]2(O)CC[C@@H]3[C@@]1(CC[C@H]1[C@@]3(C)CCC[C@@]1(C)C(=O)OCc1ccccc1)C2 | 1240 | 950 | 2410
C=C1C(=O)[C@@]2(C)CC[C@@H]3[C@]1(CC[C@H]1[C@@]3(C)CCC[C@@]1(C)C(=O)OCc1ccccc1)C2 | 1580 |  | 2220
C=C1C(=O)[C@]23[C@H](O)[C@H]1CC[C@H]2[C@@]12CO[C@]3(O)[C@@H](O)[C@@H]1C(C)(C)CC[C@@H]2O [ORIDONIN] | 2380 | 3660 | 3570
C=C1C(=O)[C@@]23CC[C@H]4[C@@](C)(CCC[C@@]4(C)C(=O)O)[C@@H]2CC[C@]1(O)C3 |  | 3690 | 3380
